Experiments:
Type in all cases: cell-based, BALB/c mouse
[1] = test system: CD8 T cell clone H5 (Ts); test: BUdR incorporation ELISA proliferation assay, Ts clone H5; conditions: Table 4
Experimental: (§1) The epitopes recognized by 15 iLRP-reactive T cell clones derived from either naive BALB/c mice, BALB/c mice bearing MCA1315 fibrosarcoma tumors, or from BALB/c mice immunized with either 1 or 10 μg of recombinant murine iLRP were determined by testing the proliferation of those clones to overlapping peptides spanning the region of the iLRP molecule recognized by each clone in the presence of IL-2, as a growth factor for T cells and irradiated, T cell-depleted, syngeneic spleen cells as antigen-presenting cells. Proliferation was measured through ELISA determination of 5-bromodeoxyuridine incorporation during culture.
(§2) More specifically, the epitope-specificity of the iLRP-specific Th1, Tc, and Ts clones was determined using a modification of the 5′-bromodeoxyuridine (BudR) incorporation ELISA technique described in Rohrer, J. W., A. L. Barsoum, D. L. Dyess, J. A. Tucker, and J. H. Coggin, Jr. 1999. Human breast carcinoma patients develop clonable oncofetal antigen-specific effector and regulatory T lymphocytes. J. Immunol. 162:6880, using the Biotrak BUdR incorporation assay (Amersham, Arlington Heights, Ill.). […] When the required color density was reached, the reaction was stopped by adding 25 μl of 1M sulfuric acid to each well and the plate read on a microELISA reader at 450 nm. […]

[2] = test system: Tc Clone L2; test: BUdR incorporation ELISA proliferation assay, Tc clone L2; conditions: Table 11
Experimental: as §1, §2

[3] = test system: iLRP-specific T cell clone L1 (CD8 Ts); test: BUdR incorporation ELISA proliferation assay, Ts clone L1; conditions: Table 3; for BUdR Incorporation (A450) of iLRP-specific T cell clone L1 cells, Expt. 1 / BUdR Incorporation (A450) of iLRP-specific T cell clone L1 cells, Expt. 2: 100 ng/well stimulant with irradiated syngeneic spleen cells (APC), 48 h culture
Experimental: as §1
(§3) More specifically, the epitope-specificity of the iLRP-specific Th1, Tc, and Ts clones was determined using a modification of the 5′-bromodeoxyuridine (BudR) incorporation ELISA technique described in Rohrer, J. W., A. L. Barsoum, D. L. Dyess, J. A. Tucker, and J. H. Coggin, Jr. 1999. Human breast carcinoma patients develop clonable oncofetal antigen-specific effector and regulatory T lymphocytes. J. Immunol. 162:6880, using the Biotrak BUdR incorporation assay (Amersham, Arlington Heights, Ill.). Briefly, at the time of restimulation of the clones, a portion of the cloned T cells were assayed for proliferation to antigen-presenting cells (APC) and various iLRP peptides. The assay was performed with 10,000 viable cloned T cells/well plus […] irradiated syngeneic spleen cells (APC) plus 100 ng/well of intact iLRP/OFA protein or the various truncated iLRP/OFA proteins or the various iLRP/OFA peptides in Iscove's modified Dulbecco's medium (IMDM) containing 2 mM L-glutamine, 100 U/ml of penicillin G, 100 μg of streptomycin sulfate, and 10% fetal calf serum. The cells were cultured for a total of 48 hours. After 24 hours of culture 5′-bromodeoxyuridine was added to a final concentration of 10 μM/well. The cells were cultured for another 24 hours. At the end of the last 24 hours of incubation, the plates were centrifuged at 300×g for 10 min, and the labelling medium removed. The cells were then dried at 60° C. for 1 hour. The cells were fixed with an ethanol fixative provided in the Biotrak kit for 30 min at room temperature, fixative was removed, and the wells were coated with blocking buffer (1% protein in 50 mM Tris-HCl, 150 mM NaCl, pH 7.4) and incubated for 30 min at room temperature. The blocking buffer was removed, 100 μl of 1:100 diluted peroxidase-labelled anti-BUdR antibody was added to each well and the plates were incubated for 90 min at room temperature. The antibody solution was removed, and the wells washed three times with 300 μl/well of wash buffer. 200 μl of 3,3′, 5,5′-tetramethylbenzidine in […] DMSO was added to each well and the plate was covered and incubated at room temperature while oscillating gently for 5-30 min. When the required color density was reached, the reaction was stopped by adding 25 μl of 1M sulfuric acid to each well and the plate read on a microELISA reader at 450 nm.
(§4) Each time the assay was done, clones were stimulated by APC and intact iLRP/OFA as a positive control. Cloned T cells were also cultured in the presence of only APC in IMDM or in the presence of APC and an iLRP/OFA peptide or truncated iLRP/OFA known not to stimulate the clones being tested. These served as negative controls. In wells where BUdR was incorporated (the iLRP/OFA stimulates proliferation of the T cells), the A450 was at least 10-fold and often approximately 50-fold higher than the negative controls. Because the Ts cells always presented with apparently low affinity T cell antigen receptors, their BUdR incorporation gave A450 values about 10 times higher than the negative controls (e.g., about 0.2 vs. 0.02), but about 5 times lower than the Th1 or Tc clones (e.g., usually about 0.9).
Overlapping 12mer peptides of the first 25 amino acids of murine iLRP were produced. Thus, peptides 1-4 corresponded to amino acid residues 1-12, 5-16, 9-20 and 17-28 of murine iLRP. […]

[4] = test system: CD8 T cell clone M3 (Tc); test: BUdR incorporation ELISA proliferation assay, Tc clone M3; conditions: Table 4
Experimental: as §1, §2

[5] = test system: iLRP-specific T cell clone L4 (Tc); test: BUdR incorporation ELISA proliferation assay, Tc clone L4; conditions: for BudR Incorporation (A450), T cell clone L4 (Tc): Table 8, overlapping 12-mers of iLRP 136-166, 100 U/ml IL-2
Experimental: as §1, §3
as §4, with “0.9). […]” for “0.9).”

[6] = test system: iLRP-specific T cell clone H2 (Ts); test: BUdR incorporation ELISA proliferation assay, Ts clone H2; conditions: for BudR Incorporation (A450), T cell clone H2 (Ts): Table 8, overlapping 12-mers of iLRP 136-166, 100 U/ml IL-2
Experimental: as §1, §3
as §4, with “0.9). […]” for “0.9).”

[7] = test system: iLRP-specific T cell clone H4 (Ts); test: BUdR incorporation ELISA proliferation assay, Ts clone H4; conditions: for BudR Incorporation (A450), T cell clone H4 (Ts): Table 8, overlapping 12-mers of iLRP 136-166, 100 U/ml IL-2
Experimental: as §1, §3
as §4, with “0.9). […]” for “0.9).”

[8] = test system: iLRP-specific T cell clone H3 (Th1); test: BUdR incorporation ELISA proliferation assay, Th1 clone H3; conditions: for BudR Incorporation (A450), T cell clone H3 (Th1): Table 8, overlapping 12-mers of iLRP 136-166, 100 U/ml IL-2
Experimental: as §1, §3
as §4, with “0.9). […]” for “0.9).”

[9] = test system: iLRP-specific T cell clone L5 (Tc); test: BUdR incorporation ELISA proliferation assay, Tc clone L5; conditions: for BudR Incorporation (A450), T cell clone L5 (Tc): Table 8, overlapping 12-mers of iLRP 136-166, 100 U/ml IL-2
Experimental: as §1, §3
as §4, with “0.9). […]” for “0.9).”

[10] = test system: iLRP-specific Th1, Tc, and Ts clones; test: BUdR incorporation proliferation assay, comparison across iLRP-specific T cell clone types; conditions: Table 14; type of T cell clone reactive with the 12-mer
Experimental: as §1, §3, §4
Determination of the portion of the truncated iLRP/OFA protein or peptide reacted to by a given clone was done by analysis of the proliferation pattern to the various truncated proteins or peptides. […]

[11] = test system: CD8 iLRP-specific T cell clone L6 (Tc); test: BUdR incorporation ELISA proliferation assay, Tc clone L6; conditions: Table 5
Experimental: as §1
More specifically, the epitope-specificity of the iLRP-specific Th1, Tc, and Ts clones was determined using a modification of the 5′-bromodeoxyuridine (BudR) incorporation ELISA technique described in Rohrer, J. W., A. L. Barsoum, D. L. Dyess, J. A. Tucker, and J. H. Coggin, Jr. 1999. Human breast carcinoma patients develop clonable oncofetal antigen-specific effector and regulatory T lymphocytes. J. Immunol. 162:6880, using the Biotrak BUdR incorporation assay (Amersham, Arlington Heights, Ill.). Briefly, at the time of restimulation of the clones, a portion of the cloned T cells were assayed for proliferation to antigen-presenting cells (APC) and various iLRP peptides. The assay was performed with 10,000 viable cloned T cells/well plus […] irradiated syngeneic spleen cells (APC) plus 100 ng/well of intact iLRP/OFA protein or the various truncated iLRP/OFA proteins or the various iLRP/OFA peptides in Iscove's modified Dulbecco's medium (IMDM) containing 2 mM L-glutamine, 100 U/ml of penicillin G, 100 μg of streptomycin sulfate, and 10% fetal calf serum. The cells were cultured for a total of 48 hours. After 24 hours of culture 5′-bromodeoxyuridine was added to a final concentration of 10 μM/well. The cells were cultured for another 24 hours. […] When the required color density was reached, the reaction was stopped by adding 25 μl of 1M sulfuric acid to each well and the plate read on a microELISA reader at 450 nm. […]

[12] = test system: CD8 iLRP-specific T cell clone M11 (Ts); test: BUdR incorporation ELISA proliferation assay, Ts clone M11; conditions: Table 5
Experimental: as §1, §2

[13] = Table 7, stimulated by a.a.'s 136-166 sequence or controls

YIYKRKSDGTYI [P4 (aa 37-48)]
Proliferation of clone H5 (in words) [1]: proliferated to iLRP peptides 3 and 4 equally well

EEFQGEWTAPAP [P17 (225-236)]
Proliferation of CD8 Tc clone L2 (in words) [2]: proliferated identically

LDVLQMKEEDVL [Peptide 2]
BUdR Incorporation (A450) of iLRP-specific T cell clone L1 cells, Expt. 1 [3]: .017 A450 | BUdR Incorporation (A450) of iLRP-specific T cell clone L1 cells, Expt. 2 [3]: .019 A450

INLKRTWEKLLL [P7 (aa 49-60)]
Proliferation of clone M3 (in words) [4]: proliferated to iLRP peptides 7 and 8 equally well

VNLPTIALCNTD [Peptide 31-2]
BudR Incorporation (A450), T cell clone L4 (Tc) [5]: .018 A450 | BudR Incorporation (A450), T cell clone H2 (Ts) [6]: .22 A450 | Proliferation of Ts clone H2 (in words) ([6]; text on Table 8): proliferated equally | BudR Incorporation (A450), T cell clone H4 (Ts) [7]: .24 A450 | Proliferation of Ts clone H4 (in words) ([7]; text on Table 8): proliferated equally | BudR Incorporation (A450), T cell clone H3 (Th1) [8]: .015 A450 | BudR Incorporation (A450), T cell clone L5 (Tc) [9]: .016 A450 | Reactive T cell clones [10]: Ts

P10 (aa 61-72): iLRP 12-mer peptide, amino acids 61-72 (AARAIVAIENPA)
BUdR incorporation, CD8 iLRP-specific T cell clone L6 (Tc) ([11]; 100 ng/well stimulant with APC, two values given): .017, .017 A450

ATGATPIAGRFT [P18 (aa 93-104)]
Proliferation of clone M11 (in words) [12]: proliferated equally well

KLLAAGTHLGGT [Peptide 4]
Proliferation of clone L1 (in words) [3]: proliferates to a peptide contained almost entirely in peptide 4 | BUdR Incorporation (A450) of iLRP-specific T cell clone L1 cells, Expt. 1 [3]: .28 A450 | BUdR Incorporation (A450) of iLRP-specific T cell clone L1 cells, Expt. 2 [3]: .27 A450

iLRP truncated protein 13: truncated iLRP protein, a.a.'s 242-295; negative control
BUdR incorporation (A450), clone L4 (Tc) [5, 13]: .017 A450 | BudR Incorporation (A450), T cell clone L4 (Tc) [5]: .017 A450 | BUdR incorporation (A450), clone H2 (Ts) [6, 13]: .015 A450 | BudR Incorporation (A450), T cell clone H2 (Ts) [6]: .017 A450 | BUdR incorporation (A450), clone H4 (Ts) [7, 13]: .016 A450 | BudR Incorporation (A450), T cell clone H4 (Ts) [7]: .018 A450 | BUdR Incorporation (A450) of iLRP-specific T cell clone L1 cells, Expt. 1 [3]: .016 A450 | BUdR Incorporation (A450) of iLRP-specific T cell clone L1 cells, Expt. 2 [3]: .014 A450 | BUdR incorporation (A450), clone H3 (Th1) [8, 13]: .017 A450 | BudR Incorporation (A450), T cell clone H3 (Th1) [8]: .015 A450 | BUdR incorporation (A450), clone L5 (Tc) [9, 13]: .015 A450 | BudR Incorporation (A450), T cell clone L5 (Tc) [9]: .016 A450

NTGQRAVLKFAA [P15 (aa 81-92)]
Proliferation of clone L6 (in words) [11]: proliferated equally well

YVDIAIPCNNKG [Peptide 31-6]
BudR Incorporation (A450), T cell clone L4 (Tc) [5]: .90 A450 | Proliferation of Tc clone L4 (in words) ([5]; text on Table 8): proliferated to peptides 31-5 and 31-6 equally | BudR Incorporation (A450), T cell clone H2 (Ts) [6]: .015 A450 | BudR Incorporation (A450), T cell clone H4 (Ts) [7]: .016 A450 | BudR Incorporation (A450), T cell clone H3 (Th1) [8]: .03 A450 | BudR Incorporation (A450), T cell clone L5 (Tc) [9]: .015 A450 | Reactive T cell clones [10]: Tc

— patent US8709405B2, “Cancer vaccines containing epitopes of oncofetal antigen” (South Alabama Medical Science Foundation, priority 2002, dated 2014)
